Publication PMC8915595, “Revisiting the application of Immobilized Artificial Membrane (IAM) chromatography to estimate in vivo distribution properties of drug discovery compounds based on the model of marketed drugs” (ADMET & DMPK, 2020)
Like-named read-outs stand apart in the source and are kept apart here.

Columns and labels:
[1] = IAM chromatography on new IAM.PC.DD2 columns (gradient HPLC, CHI (IAM)); assay type: physicochemical; set-up: key to CHI (IAM) “new” / P20511-014-3 CHI (IAM): CHI (IAM) from retention times calibrated to predefined CHI standards; conditions: for P20511-014-3 CHI (IAM): new IAM.PC.DD2 column batch P20511-014-3, pH 7.4; for R20511-014-3 CHI (IAM): new IAM.PC.DD2 column batch R20511-014-3, pH 7.4; for CHI (IAM) deviation between reference and new IAM.PC.DD2 columns / CHI (IAM) “new”: system suitability test compounds; for CHI (IAM) “new”: new IAM.PC.DD2 columns, pH 7.4; for outlier in correlation of reference CHI (IAM) with CHI (IAM) on column R20511-014-3: lower CHI (IAM) on new batches, outlier if difference greater than 7.2 CHI IAM units
Description: The IAM binding was measured using IAM.PC.DD2 HPLC columns (Regis Technologies, Inc., IL, USA) with dimensions of 100 x 4.6 mm, particle size 10 μm with 300 Å pore size.
Two batches of IAM.PC.DD2 columns were studied (R20511-014-3 and P20511-014-3) that had been prepared using the new batches of silica support.
The retention times were standardized using the IAM calibration mixture, containing octanophenone, heptanophenone, hexanophenone, valerophenone, butyrophenone, propiophenone, acetophenone, acetanilide and paracetamol. The retention times of the compounds were plotted against the isocratically determined and predefined CHI (IAM) values listed in Table 1. The slope and intercept of the obtained straight line was used to calculate the CHI IAM values of new compounds.

[2] = biological target: T1, human serum albumin (HSA) (Homo sapiens, UniProt P02768); conditions: cited from earlier work
[3] = cited from earlier work; for CHI (IAM) from ref [13]: reference CHI (IAM), old columns
[4] = biological target: T1, human serum albumin (HSA); test: Protein binding on chemically bonded HSA column (Chiralpak-HSA); conditions: remeasured in this study, pH 7.4
Description: Mobile phase A was 50 mM ammonium acetate adjusted to pH 7.4 and mobile phase B was 2-propanol. The flow rate was 1.5 mL/min and the run time was 6 min. The 2-propanol gradient was applied from 0 to 35% from 0 to 3.00 min and kept at 35% until 4.00 min.

[5] = human

T1 sequence (P02768 25-609): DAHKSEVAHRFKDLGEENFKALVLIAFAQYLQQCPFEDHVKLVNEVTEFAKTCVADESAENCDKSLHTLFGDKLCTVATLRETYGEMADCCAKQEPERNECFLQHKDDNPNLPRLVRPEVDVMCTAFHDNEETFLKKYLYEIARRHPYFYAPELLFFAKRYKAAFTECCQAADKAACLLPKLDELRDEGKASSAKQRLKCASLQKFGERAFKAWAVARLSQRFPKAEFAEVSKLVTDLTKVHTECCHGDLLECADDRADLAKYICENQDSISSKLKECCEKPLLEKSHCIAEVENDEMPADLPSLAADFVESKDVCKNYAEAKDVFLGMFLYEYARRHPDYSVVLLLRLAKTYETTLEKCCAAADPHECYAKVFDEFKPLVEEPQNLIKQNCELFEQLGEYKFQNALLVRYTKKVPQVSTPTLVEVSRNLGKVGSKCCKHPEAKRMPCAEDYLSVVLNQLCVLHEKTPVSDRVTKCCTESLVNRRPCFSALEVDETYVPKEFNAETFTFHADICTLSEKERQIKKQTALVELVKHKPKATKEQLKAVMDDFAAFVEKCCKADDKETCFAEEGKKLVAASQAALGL

Structure (SMILES)	P20511-014-3 CHI (IAM) [1]	R20511-014-3 CHI (IAM) [1]	log K HSA from ref [13] [2]	CHI (IAM) from ref [13] [3]	log K HSA [4]	CHI (IAM) deviation between reference and new IAM.PC.DD2 columns [1]	CHI (IAM) “new” [1]	CHI (IAM) ([3]; system suitability test compounds, CHI (IAM) reference from the literature)	reference log Vdss [5]	CHI (IAM) ([3]; previously published, IAM column manufactured 2004-2012)	outlier in correlation of reference CHI (IAM) with CHI (IAM) on column R20511-014-3 [1]
CCN(CC)CCNC(=O)c1ccc(NC(C)=O)cc1 [Acecainide]	17.57	17.72	0.69	23.30	0.52	–	–	–	–	–	–
Clc1ccc2c(c1)C(N1CCNCC1)=Nc1ccccc1O2 [Amoxapine]	44.74	45.41	2.15	56.50	2.70	–	–	–	–	–	–
CCCCNCC(O)c1ccc(O)cc1 (stereo not shown) [Bamethan]	18.03	18.53	–	–	0.42	–	–	–	–	–	–
C[C@H]1C[C@H]2[C@@H]3CCC4=CC(=O)C=C[C@]4(C)[C@@]3(F)[C@@H](O)C[C@]2(C)[C@@]1(O)C(=O)CO [Betamethasone]	30.05	30.18	–	31.70	–	–	–	–	–	–	–
CCCC1O[C@@H]2C[C@H]3[C@@H]4CCC5=CC(=O)C=C[C@]5(C)[C@H]4[C@@H](O)C[C@]3(C)[C@]2(C(=O)CO)O1 (stereo partly shown) [Budesonide]	–	–	–	–	–	very similar	38	38.7	–	–	–
CN(C)CCCN1c2ccccc2Sc2ccc(Cl)cc21 [Chlorpromazine]	50.94	51.54	1.18	–	1.27	> 5 CHI (IAM) unit	54.0	–	2.15	–	–
CCn1nc(C(=O)O)c(=O)c2cc3c(cc21)OCO3 [Cinoxacin]	6.67	5.31	0.79	–	0.91	–	–	–	-0.42	–	–
COc1cc2c(c(OC)c1OC)-c1ccc(OC)c(=O)cc1[C@@H](NC(C)=O)CC2 [Colchicine]	23.18	23.45	–	23.70	–	–	23.0	–	–	–	–
O=C(O)Cc1ccccc1Nc1c(Cl)cccc1Cl [Diclofenac]	35.85	35.18	–	33.50	–	–	–	–	-0.67	–	–
Cn1c(=O)c2c(ncn2CC(O)CO)n(C)c1=O (stereo not shown) [Diprophylline]	-1.98	-1.49	4.1	-4.00	4.24	–	–	–	–	–	–
NC(=O)OCC(COC(N)=O)c1ccccc1 [Felbamate]	39.21	39.16	3.46	19.07	4.15	–	–	–	–	–	–
CCOC(=O)C1=C(C)NC(C)=C(C(=O)OC)C1c1cccc(Cl)c1Cl (stereo not shown) [Felodipine]	44.45	44.37	–	46.10	–	–	–	–	–	–	–
CCOC(=O)c1ncn2c1CN(C)C(=O)c1cc(F)ccc1-2 [Flumazenil]	18.27	18.27	–	18.40	–	–	–	–	–	–	–
O=C(CCCN1CCC(O)(c2ccc(Cl)cc2)CC1)c1ccc(F)cc1 [Haloperidol]	–	–	–	–	–	very similar	48	–	–	–	–
C[C@]12CCC(=O)C=C1CC[C@@H]1[C@@H]2[C@@H](O)C[C@@]2(C)[C@H]1CC[C@]2(O)C(=O)CO [Hydrocortisone]	27.02	27.23	–	27.90	2.59	–	–	–	–	–	–
CN(C)CCCN1c2ccccc2CCc2ccccc21 [Imipramine]	44.81	45.58	–	51.60	5.59	> 5 CHI (IAM) unit	45.0	–	–	–	–
COc1ccc2c(c1)c(CC(=O)O)c(C)n2C(=O)c1ccc(Cl)cc1 [Indomethacin]	33.16	32.49	–	25.30	–	very similar	30.0	–	-0.96	–	–
CC(=O)N1CCN(c2ccc(OCC3COC(Cn4ccnc4)(c4ccc(Cl)cc4Cl)O3)cc2)CC1 (stereo not shown) [Ketoconazole]	39.26	39.50	–	42.90	–	–	–	–	–	–	–
CC(C(=O)O)c1cccc(C(=O)c2ccccc2)c1 (stereo not shown) [Ketoprofen]	23.89	22.93	–	21.90	–	very similar	20.0	–	–	21.9	–

Structure (SMILES)	P20511-014-3 CHI (IAM) [1]	R20511-014-3 CHI (IAM) [1]	log K HSA from ref [13] [2]	CHI (IAM) from ref [13] [3]	log K HSA [4]	CHI (IAM) deviation between reference and new IAM.PC.DD2 columns [1]	CHI (IAM) “new” [1]	CHI (IAM) ([3]; system suitability test compounds, CHI (IAM) reference from the literature)	reference log Vdss [5]	CHI (IAM) ([3]; previously published, IAM column manufactured 2004-2012)	outlier in correlation of reference CHI (IAM) with CHI (IAM) on column R20511-014-3 [1]
CC(CCc1ccccc1)NCC(O)c1ccc(O)c(C(N)=O)c1 (stereo not shown) [Labetalol]	37.48	38.29	–	43.90	–	–	–	–	–	–	–
COc1ccc2cc(CCC(C)=O)ccc2c1 [Nabumetone]	35.96	35.90	0.49	38.40	2.14	–	–	–	–	–	–
COc1ccc(Cc2nccc3cc(OC)c(OC)cc23)cc1OC [Papaverine]	31.15	31.22	–	34.40	0.39	–	–	–	–	–	–
OCCN1CCN(CCCN2c3ccccc3Sc3ccc(Cl)cc32)CC1 [Perphenazine]	48.97	49.57	1.6	56.30	2.02	–	–	–	–	–	–
COc1cc2nc(N3CCN(C(=O)c4ccco4)CC3)nc(N)c2cc1OC [Prazosin]	29.35	29.82	–	31.60	–	–	–	–	–	–	–
C[C@]12C=CC(=O)C=C1CC[C@@H]1[C@@H]2[C@@H](O)C[C@@]2(C)[C@H]1CC[C@]2(O)C(=O)CO [Prednisolone]	27.20	27.31	–	28.00	–	–	–	–	–	–	–
CCN(CC)CCNC(=O)c1ccc(N)cc1 [Procainamide]	11.89	11.73	0.73	–	1.67	–	–	–	–	–	outliers
CC(C)NCC(O)COc1cccc2ccccc12 (stereo not shown) [Propranolol]	41.46	42.24	–	50.80	1.02	–	42.0	–	–	–	–
CCCc1cc(=O)[nH]c(=S)[nH]1 [Propylthiouracil]	–	–	2.67	–	3.21	–	–	–	–	–	–
O=C1C(CC[S+]([O-])c2ccccc2)C(=O)N(c2ccccc2)N1c1ccccc1 (stereo not shown) [Sulfinpyrazone]	26.89	26.19	3.17	26.10	2.66	–	–	–	–	–	–
Cc1noc(NS(=O)(=O)c2ccc(N)cc2)c1C [Sulfisoxazole]	7.37	6.48	–	2.90	3.68	–	–	–	–	–	–
CCN1CCCC1CNC(=O)c1cc(S(N)(=O)=O)ccc1OC (stereo not shown) [Sulpiride]	16.15	15.80	4.84	25.50	–	–	–	–	0.12	–	outliers
CC/C(=C(\c1ccccc1)c1ccc(OCCN(C)C)cc1)c1ccccc1 [Tamoxifen]	–	–	1.29	–	4.82	–	–	–	–	–	–
Cn1cnc2c1c(=O)[nH]c(=O)n2C [Theobromine]	-3.71	-3.16	4.68	–	–	–	–	–	-0.25	–	–
O=c1n(CCCN2CCN(c3cccc(Cl)c3)CC2)nc2ccccn12 [Trazodone]	33.86	34.09	0.8	36.30	3.06	–	–	–	–	–	–
COc1cc(Cc2cnc(N)nc2N)cc(OC)c1OC [Trimethoprim]	20.52	20.99	4.45	20.80	0.95	–	–	–	–	–	–
CC(=O)CC(c1ccccc1)c1c(O)c2ccccc2oc1=O (stereo not shown) [Warfarin]	24.18	23.47	–	–	–	very similar	24.0	–	-0.78	–	–
CN(C)CCc1c[nH]c2ccc(C[C@H]3COC(=O)N3)cc12 [zolmitriptan]	–	–	–	–	–	–	–	–	–	–	outliers
